The values below come from publication PMC7282810, “Existence and functions of a kisspeptin neuropeptide signaling system in a non-chordate deuterostome species” (eLife, 2020).

Entries after “also recorded” stand apart in the source; their conditions may differ. *1 amine or outer side, *2 acyl side, *3 side chain or, on linkers, in order; H or OH if unused. Where a SMILES comes first, the peptide text is derived from it. Bridges are numbered along the chain shown (N, C = ends). Where no end group is shown, it is not given here. [ ]: non-standard residue; d: D form. The star is where a group is joined. Leu(3R-OH,Nα-propionyl) = CCC(=O)N[C@H](C(=O)*)[C@H](O)C(C)C; X1 = CC(C)[C@@H](O[*:3])[C@H](N[*:1])C(=O)[*:2]; NMeT = CN[C@H](C(=O)O)[C@@H](C)O; dPhLac = O=C(O)[C@H](O)Cc1ccccc1; NMeA = CN[C@@H](C)C(=O)O; NMeDha = C=C(NC)C(=O)O

Test [1] addresses T1, AjKissR1 (Apostichopus japonicus, UniProt A0A5B7LK60).
T1 sequence (A0A5B7LK60 1-378): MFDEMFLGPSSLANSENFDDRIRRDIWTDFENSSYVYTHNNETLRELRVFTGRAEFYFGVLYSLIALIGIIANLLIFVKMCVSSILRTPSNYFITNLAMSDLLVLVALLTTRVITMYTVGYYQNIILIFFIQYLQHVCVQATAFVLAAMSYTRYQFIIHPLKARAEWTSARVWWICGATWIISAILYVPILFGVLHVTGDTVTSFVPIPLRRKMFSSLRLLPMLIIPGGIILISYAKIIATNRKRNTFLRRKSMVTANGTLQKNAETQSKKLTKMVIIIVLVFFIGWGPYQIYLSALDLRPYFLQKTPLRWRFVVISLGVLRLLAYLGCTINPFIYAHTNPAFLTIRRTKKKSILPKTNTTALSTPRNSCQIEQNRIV
Briefly: cell-based. Format: cell-based. The note with it: for Effect of inhibitor pre-treatment on AjKiss1a/AjKiss1b-elicited Ca2+ mobilization (in words): 100 nM AjKiss1a or AjKiss1b, pre-treated 12 hr PTX 100 ng/mL, or 1 hr FR900359 1.0 μM, U73122 10 μM, BAPTA-AM 100.0 μM, EGTA 5.0 mM; for Potency in triggering intracellular Ca2+ mobilization via AjKissR1 (in words): HEK293, Fura-2/AM, vertebrate kisspeptins and FITC-AjKiss1a at 1.0 μM. The procedure: (§1) The fluorescent Ca^2+ indicator Fura-2/AM was used to detect intracellular calcium flux ([Li et al., 2010]). Briefly, the HEK293 cells expressing the AjKissR1, AjKissR2 or vertebrate kisspeptin receptor were washed twice with PBS and suspended at 5 × 10^6 cells/mL in Hanks’ balanced salt solution. The cells were then loaded with 3.0 μM Fura-2/AM for 30 min and washed twice in Hanks’ solution. They were then stimulated with the indicated concentrations of different predicted A. japonicus kisspeptins or vertebrate kisspeptins. Finally, intracellular calcium flux was measured for 60 s, by determining the ratio of excitation wavelengths at 340 and 380 nm using a fluorescence spectrometer (Infinite 200 PRO, Tecan, Männedorf, Switzerland). All of the experiments for measuring Ca^2+ mobilization were repeated independently at least three times.

The target of test [2] is T2, AjKissR2 (Apostichopus japonicus, UniProt A0A5B7LIE4).
T2 sequence (A0A5B7LIE4 1-327): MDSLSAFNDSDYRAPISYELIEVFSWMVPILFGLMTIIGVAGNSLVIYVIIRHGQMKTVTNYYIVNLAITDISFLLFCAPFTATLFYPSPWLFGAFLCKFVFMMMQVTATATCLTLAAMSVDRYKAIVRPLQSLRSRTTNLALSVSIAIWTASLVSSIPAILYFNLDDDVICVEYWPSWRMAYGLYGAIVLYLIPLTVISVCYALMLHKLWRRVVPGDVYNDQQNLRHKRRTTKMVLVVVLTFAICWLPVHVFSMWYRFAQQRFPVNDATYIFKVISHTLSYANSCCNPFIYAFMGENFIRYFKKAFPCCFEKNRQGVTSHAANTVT
Briefly: cell-based. Format: cell-based. The note with it: for Effect of inhibitor pre-treatment on AjKiss1a/AjKiss1b-elicited Ca2+ mobilization (in words): 100 nM AjKiss1a or AjKiss1b, pre-treated 12 hr PTX 100 ng/mL, or 1 hr FR900359 1.0 μM, U73122 10 μM, BAPTA-AM 100.0 μM, EGTA 5.0 mM; for Potency in triggering intracellular Ca2+ mobilization via AjKissR2 (in words): HEK293, Fura-2/AM, vertebrate kisspeptins and FITC-AjKiss1a at 1.0 μM. As to the method: as §1

In test [3] the target is T1, AjKissR1. As to the kind of experiment: ERK1/2 phosphorylation (western blot) in HEK293 cells expressing FLAG-AjKissR1. Format: cell-based. Particulars: for Effect of inhibitor on AjKiss1b-10-activated ERK1/2 phosphorylation (in words): pre-treated 1 hr, U73122 10 μM, Gö6983 1.0 μM, AjKiss1b-10 1.0 μM. As to the method: (§2) To examine the phosphorylation of ERK, cells that expressed AjKissr1/2 or other GPR54s were incubated for the indicated times with different concentrations of kisspeptins. Subsequently, cells were lysed with lysis buffer (Beyotime) that contained protease inhibitor (Roche) at 4°C for 30 min on a rocker and then scraped. Proteins were then electrophoresed on a 10% SDS polyacrylamide gel and transferred to polyvinylidene difluoride (PVDF) membranes. Membranes were blocked with 5% skimmed milk, then probed with rabbit anti-phospho-ERK1/2(Thr^202/Tyr^204) antibody (1:2000; Cell Signaling Technology), followed by detection using HRP-conjugated goat anti-rabbit IgG (Beyotime). Blots were stripped and reprobed using anti-ERK1/2 antibody (1:2000; Cell Signaling Technology) as a control for protein loading.
(§3) Immunoreactive bands were detected with an enhanced chemiluminescent substrate (Beyotime), and the membrane was scanned using a Tanon 5200 Chemiluminescent Imaging System (Tanon Science and Technology, Shanghai, China).

Test [4] deals with T2, AjKissR2. Briefly: ERK1/2 phosphorylation (western blot) in HEK293 cells expressing FLAG-AjKissR2. The class given is cell-based. The note with it: for Effect of inhibitor on AjKiss1b-10-activated ERK1/2 phosphorylation (in words): pre-treated 1 hr, U73122 10 μM, Gö6983 1.0 μM, AjKiss1b-10 1.0 μM. The procedure:
as §2, §3

The target in test [5] is T2, AjKissR2. Briefly: Ligand competition binding assay (FITC-AjKiss1a, FACS), HEK293/AjKissR2. The note with it: 1.0 μM FITC-AjKiss1a, read-out: IC50 (competitive displacement of FITC-AjKiss1a). The procedure: (§4) A fluorescence-activated cell sorter (FACS) was used to detect the binding ability of kisspeptins with AjKissR1 or AjKissR2. HEK293 cells expressing FLAG–AjKissR1 or FLAG–AjKissR2 were washed with PBS that contained 0.2% bovine serum albumin (FACS buffer). We designed and synthesized an N-terminal FITC-labeled AjKiss1a peptide (see 'Key resources table'). Different kisspeptins were diluted in the FACS buffer to different concentrations, then added to cells that were incubated on ice for 60–90 min. Cells were washed thrice with the FACS buffer and re-suspended in the FACS buffer with 1% paraformaldehyde for 15 min. The binding activity of the indicated kisspeptin peptides with AjKissR1 or AjKissR2 was determined by measuring the fluorescence of FITC and was presented as a percentage of total binding.

In test [6] the target is T1, AjKissR1. Briefly: Ligand competition binding assay (FITC-AjKiss1a, FACS), HEK293/AjKissR1. The note with it: 1.0 μM FITC-AjKiss1a, read-out: IC50 (competitive displacement of FITC-AjKiss1a). The procedure:
as §4

The mark [7] stands for this setting: different concentrations for 5 min, immunoblot quantification, Figure 6A.

For `CC(=O)OCOC(=O)CN(CC(=O)OCOC(C)=O)c1ccccc1OCCOc1ccccc1N(CC(=O)OCOC(C)=O)CC(=O)OCOC(C)=O` [BAPTA-AM, 1,2-bis(o-aminophenoxy)ethane N,N,N',N'-tetraacetic acid acetoxymethyl ester, reference compound], the “Effect of inhibitor pre-treatment on AjKiss1a/AjKiss1b-elicited Ca2+ mobilization (in words)” value at AjKissR1 [1] and on AjKissR2 [2] was “significantly attenuated” in each case.

In the case of `O=C(O)CN(CCOCCOCCN(CC(=O)O)CC(=O)O)CC(=O)O` [EGTA, reference compound], the “Effect of inhibitor pre-treatment on AjKiss1a/AjKiss1b-elicited Ca2+ mobilization (in words)” value at AjKissR1 [1] and on AjKissR2 [2] was “significantly attenuated” in each case.

Turning to `C=C1C(=O)N[C@@H](C)C(=O)N(C)[C@@H](C)C(=O)N[C@@H]([C@H](OC(=O)[C@@H](NC(=O)CC)[C@H](O)C(C)C)C(C)C)C(=O)N(C)[C@@H]([C@@H](C)OC)C(=O)O[C@H](C(C)C)[C@H](NC(C)=O)C(=O)O[C@H](Cc2ccccc2)C(=O)N1C` [FR900359, reference compound] (Ac-[X1][dPhLac][NMeDha]A[NMeA][X1](Leu(3R-OH,Nα-propionyl))[NMeT](Me); ester 1-C), the “Effect of inhibitor pre-treatment on AjKiss1a/AjKiss1b-elicited Ca2+ mobilization (in words)” value on AjKissR1 [1] and on AjKissR2 [2] was “completely blocked” in each case.

For `COc1ccc2c(c1)c(C1=C(c3c[nH]c4ccccc34)C(=O)NC1=O)cn2CCCN(C)C` [Gö6983], the “Effect of inhibitor on AjKiss1b-10-activated ERK1/2 phosphorylation (in words)” value on AjKissR1 [3] and at AjKissR2 [4] was “significantly blocked” throughout.

As for `COc1ccc2c(c1)CC[C@@H]1[C@@H]2CC[C@]2(C)[C@@H](NCCCCCCN3C(=O)C=CC3=O)CC[C@@H]12` [U73122, reference compound], the “Effect of inhibitor on AjKiss1b-10-activated ERK1/2 phosphorylation (in words)” value at AjKissR1 [3] and on AjKissR2 [4] was “significantly blocked” each time. The “Effect of inhibitor pre-treatment on AjKiss1a/AjKiss1b-elicited Ca2+ mobilization (in words)” value at AjKissR1 [1] and at AjKissR2 [2] was “significantly attenuated” throughout.

Regarding “AHYRTLPF-NH2 [AjKiss1a-10, truncated peptide of AjKiss1a]”, the “Potency in triggering intracellular Ca2+ mobilization via AjKissR1 (in words)” value at AjKissR1 [1] is “failed to activate”. Moreover, on AjKissR2 [2], the “Potency in triggering intracellular Ca2+ mobilization via AjKissR2 (in words)” value is on record as “failed to activate”.

Consider “FITC–AGSLDc < CLEASC > EDVERRGRQPNRNAHYRTLPF-NH2 (disulfide) [FITC–AjKiss1a]”, for which the “Potency in triggering intracellular Ca2+ mobilization via AjKissR1 (in words)” value on AjKissR1 [1] is on record as “comparable to that induced by the wild-type neuropeptide”. Further, the “Potency in triggering intracellular Ca2+ mobilization via AjKissR2 (in words)” value at AjKissR2 [2] is recorded as “comparable to that induced by the wild-type neuropeptide”.

For “FNYNPFGLRF-NH2 [DrKiss2-10, synthetic zebrafish kisspeptin decapeptide, reference compound]”, at AjKissR1 [1], the “Potency in triggering intracellular Ca2+ mobilization via AjKissR1 (in words)” value is listed as “much lower potency; also recorded: potent”. Moreover, the “Potency in triggering intracellular Ca2+ mobilization via AjKissR2 (in words)” value at AjKissR2 [2] is on record as “higher potency than that of HsKiss1-10; also recorded: potent”.

Consider “GRQPNRNAHYRTLPF-NH2 [AjKiss1a-15, truncated peptide of AjKiss1a]”, for which the “Potency in triggering intracellular Ca2+ mobilization via AjKissR1 (in words)” value at AjKissR1 [1] is “failed to activate”. Besides, on AjKissR2 [2], the “Potency in triggering intracellular Ca2+ mobilization via AjKissR2 (in words)” value was “failed to activate”.

As to “HsNPS: human neuropeptide S, as a negative control (SFRNGVGTGMKKTSFQRAKS) [reference compound]”, the “Potency in triggering intracellular Ca2+ mobilization via AjKissR1 (in words)” value with AjKissR1 [1] was “no potency”. In addition, the “Potency in triggering intracellular Ca2+ mobilization via AjKissR2 (in words)” value with AjKissR2 [2] is given as “no potency”.

SAVKNKNKSRARPPLLPF-NH2 [AjKiss1b]: the EC50 at AjKissR1 [1] was found to be 8.06 nM; at AjKissR2 [2] it was 33.2 nM. Also, the half-maximal inhibitory concentration (IC50) was determined as 1250 nM at AjKissR2 [5] and 353 nM on AjKissR1 [6].

As for SRARPPLLPF-NH2 [AjKiss1b-10], the EC50 at AjKissR1 [3] (setting [7]) was 31.6 nM; at AjKissR2 [4] (setting [7]) it was 98.7 nM; on AjKissR1 [1], 1.71 nM; at AjKissR2 [2], 27.3 nM.

For “YNLNSFGLRY-NH2 [DrKiss1-10, synthetic zebrafish kisspeptin decapeptide, reference compound]”, the “Potency in triggering intracellular Ca2+ mobilization via AjKissR1 (in words)” value on AjKissR1 [1] is listed as “much lower potency; also recorded: potent”. In addition, on AjKissR2 [2], the “Potency in triggering intracellular Ca2+ mobilization via AjKissR2 (in words)” value is “higher potency than that of HsKiss1-10; also recorded: potent”.

In the case of “YNVNSFGLRF-NH2 [XtKiss1b-10, synthetic frog kisspeptin decapeptide, reference compound]”, at AjKissR1 [1], the “Potency in triggering intracellular Ca2+ mobilization via AjKissR1 (in words)” value was “higher potency; also recorded: potent”. In addition, at AjKissR2 [2], the “Potency in triggering intracellular Ca2+ mobilization via AjKissR2 (in words)” value is “higher potency than that of HsKiss1-10; also recorded: potent”.

For “YNWNSFGLRF-NH2 [HsKiss1-10, synthetic human kisspeptin decapeptide, reference compound]”, the “Potency in triggering intracellular Ca2+ mobilization via AjKissR1 (in words)” value on AjKissR1 [1] was “higher potency; also recorded: potent”. Also, at AjKissR2 [2], the “Potency in triggering intracellular Ca2+ mobilization via AjKissR2 (in words)” value was “potent”.
